Biological target: CFTR-mediated chloride transport in human intestinal epithelial enteroid cells (Homo sapiens, UniProt P13569)
Experiment: Membrane potential dye, Enteroid Assay A
Format: cell-based
Conditions: for EC50: enteroid cells incubated with test compound 18-24 hours, acute 10 μM forskolin and 300 nM N-[2,4-bis(1,1-dimethylethyl)-5-hydroxyphenyl]-1,4-dihydro-4-oxoquinoline-3-carboxamide, read-out: Ent. A EC50; for Ent. A Max Activity (%): percentage of chloride transport of triple combination control (3 μM N-[(6-amino-2-pyridyl)sulfonyl]-6-(3-fluoro-5-isobutoxy-phenyl)-2-[(4S)-2,2,4-trimethylpyrrolidin-1-yl]pyridine-3-carboxamide based)
In short: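 Membrane potential dye (20 μM methyl oxonol, with 30 μM CaCCinh-A01 and 30 μM Chicago Sky Blue) loaded 25 min at room temperature into ROCK-inhibitor-seeded human enteroid cells. Chloride-free stimulation buffer triggered transport, followed by 15 min fluorescence. % Activity relative to 3 μM/3 μM/300 nM triple-combination control.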

Sequence of CFTR-mediated chloride transport in human intestinal epithelial enteroid cells (P13569 with tags, fused parts or gaps DEL508-508): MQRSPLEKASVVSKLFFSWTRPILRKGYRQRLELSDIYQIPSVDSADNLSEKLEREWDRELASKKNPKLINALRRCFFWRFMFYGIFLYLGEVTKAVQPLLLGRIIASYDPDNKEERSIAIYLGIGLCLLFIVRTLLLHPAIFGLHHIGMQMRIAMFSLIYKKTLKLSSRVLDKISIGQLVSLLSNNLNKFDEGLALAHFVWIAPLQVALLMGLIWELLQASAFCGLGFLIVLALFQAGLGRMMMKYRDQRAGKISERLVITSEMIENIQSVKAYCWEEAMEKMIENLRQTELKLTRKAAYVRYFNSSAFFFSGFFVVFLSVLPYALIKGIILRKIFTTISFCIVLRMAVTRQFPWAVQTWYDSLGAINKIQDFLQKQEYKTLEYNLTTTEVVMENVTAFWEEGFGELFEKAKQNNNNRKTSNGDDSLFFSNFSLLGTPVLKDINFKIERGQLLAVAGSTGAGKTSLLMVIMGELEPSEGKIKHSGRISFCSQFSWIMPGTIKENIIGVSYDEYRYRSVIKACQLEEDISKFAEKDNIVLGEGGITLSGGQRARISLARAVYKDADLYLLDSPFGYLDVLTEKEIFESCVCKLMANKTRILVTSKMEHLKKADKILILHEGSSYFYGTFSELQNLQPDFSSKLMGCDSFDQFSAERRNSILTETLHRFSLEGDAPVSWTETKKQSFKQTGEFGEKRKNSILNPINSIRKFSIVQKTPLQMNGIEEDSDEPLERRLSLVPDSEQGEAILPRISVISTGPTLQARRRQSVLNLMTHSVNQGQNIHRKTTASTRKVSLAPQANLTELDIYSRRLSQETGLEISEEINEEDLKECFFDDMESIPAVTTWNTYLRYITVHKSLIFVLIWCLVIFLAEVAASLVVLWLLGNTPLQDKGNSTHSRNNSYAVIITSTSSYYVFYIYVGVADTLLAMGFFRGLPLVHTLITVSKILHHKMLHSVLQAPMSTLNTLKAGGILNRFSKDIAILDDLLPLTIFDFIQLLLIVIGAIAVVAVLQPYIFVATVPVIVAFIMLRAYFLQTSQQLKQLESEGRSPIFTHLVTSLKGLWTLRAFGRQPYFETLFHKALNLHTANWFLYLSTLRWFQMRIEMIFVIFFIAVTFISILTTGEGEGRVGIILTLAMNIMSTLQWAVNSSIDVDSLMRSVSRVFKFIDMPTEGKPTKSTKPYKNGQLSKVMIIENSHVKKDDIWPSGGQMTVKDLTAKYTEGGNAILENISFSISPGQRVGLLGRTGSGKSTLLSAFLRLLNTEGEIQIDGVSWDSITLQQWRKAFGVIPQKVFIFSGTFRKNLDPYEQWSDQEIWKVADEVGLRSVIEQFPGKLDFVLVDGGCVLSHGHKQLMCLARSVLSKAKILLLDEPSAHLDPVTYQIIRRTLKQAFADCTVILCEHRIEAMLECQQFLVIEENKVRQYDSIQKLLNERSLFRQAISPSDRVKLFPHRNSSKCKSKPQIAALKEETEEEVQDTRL

SMILES	EC50 [µM]	Ent. A Max Activity (%)
Cc1cccc(C)c1-c1cc2nc(n1)NS(=O)(=O)c1cccc(c1)C(=O)N1CCN(CC3CCCC3)C[C@@H]1CO2 [Compound 260]	< 1	+++ (+++ is >60%)
Cc1cccc(C)c1-c1cc2nc(n1)NS(=O)(=O)c1cccc(c1)C(=O)N1CCN(CC3(C)COC3)C[C@@H]1CO2 [Compound 261]		+ (+ is <300%)
Cc1cccc(C)c1-c1cc2nc(n1)NS(=O)(=O)c1cccc(c1)C(=O)N1CCN(CC3CC3)C[C@@H]1CO2 [Compound 262]	3 to 30	+++ (+++ is >60%)
Cc1cccc(C)c1-c1cc2nc(n1)NS(=O)(=O)c1cccc(c1)C(=O)N1CCN(CCC3CCOCC3)C[C@@H]1CO2 [Compound 263]	3 to 30	++ (++ is 30-60%)
Cc1cccc(C)c1-c1cc2nc(n1)NS(=O)(=O)c1cccc(c1)C(=O)N1CCN(Cc3cnn(C(C)C)c3)C[C@@H]1CO2 [Compound 264]		++ (++ is 30-60%)
CNc1ccc(CN2CCN3C(=O)c4cccc(c4)S(=O)(=O)Nc4nc(cc(-c5c(C)cccc5C)n4)OC[C@H]3C2)cn1 [Compound 265]	3 to 30	++ (++ is 30-60%)
Cc1cccc(C)c1-c1cc2nc(n1)NS(=O)(=O)c1cccc(c1)C(=O)N1CCN(Cc3ccccc3C#N)C[C@@H]1CO2 [Compound 266]	3 to 30	+++ (+++ is >60%)
Cc1cccc(C)c1-c1cc2nc(n1)NS(=O)(=O)c1cccc(c1)C(=O)N1CCN(Cc3cccc(C#N)c3)C[C@@H]1CO2 [Compound 267]	1 to 3	+++ (+++ is >60%)
Cc1cccc(C)c1-c1cc2nc(n1)NS(=O)(=O)c1cccc(c1)C(=O)N1CCN(CCC(C)C)C[C@@H]1CO2 [Compound 268]	1 to 3	+++ (+++ is >60%)
Cc1cccc(C)c1-c1cc2nc(n1)NS(=O)(=O)c1cccc(c1)C(=O)N1CCN(CC(C)C)C[C@@H]1CO2 [Compound 269]	< 1	+++ (+++ is >60%)
Cc1cccc(C)c1-c1cc2nc(n1)NS(=O)(=O)c1cccc(c1)C(=O)N1CCN(Cc3ccc(C#N)cc3)C[C@@H]1CO2 [Compound 270]	1 to 3	+++ (+++ is >60%)
Cc1cccc(C)c1-c1cc2nc(n1)NS(=O)(=O)c1cccc(c1)C(=O)N1CCN(Cc3ccccc3O)C[C@@H]1CO2 [Compound 271]	< 1	+++ (+++ is >60%)
Cc1cccc(C)c1-c1cc2nc(n1)NS(=O)(=O)c1cccc(c1)C(=O)N1CCN(Cc3cccc(O)c3)C[C@@H]1CO2 [Compound 272]	3 to 30	+++ (+++ is >60%)
Cc1cccc(C)c1-c1cc2nc(n1)NS(=O)(=O)c1cccc(c1)C(=O)N1CCN(Cc3ccc(O)cc3)C[C@@H]1CO2 [Compound 273]	1 to 3	++ (++ is 30-60%)
Cc1ccc(CN2CCN3C(=O)c4cccc(c4)S(=O)(=O)Nc4nc(cc(-c5c(C)cccc5C)n4)OC[C@H]3C2)cn1 [Compound 274]	3 to 30	+++ (+++ is >60%)
Cc1cccc(C)c1-c1cc2nc(n1)NS(=O)(=O)c1cccc(c1)C(=O)N1CCN(Cc3nccs3)C[C@@H]1CO2 [Compound 275]	3 to 30	+++ (+++ is >60%)
Cc1cccc(C)c1-c1cc2nc(n1)NS(=O)(=O)c1cccc(c1)C(=O)N1CCN(Cc3cn(C)nc3C)C[C@@H]1CO2 [Compound 276]		++ (++ is 30-60%)
Cc1cccc(C)c1-c1cc2nc(n1)NS(=O)(=O)c1cccc(c1)C(=O)N1CCN(Cc3ccc[nH]c3=O)C[C@@H]1CO2 [Compound 277]		+ (+ is <300%)
Cc1cccc(C)c1-c1cc2nc(n1)NS(=O)(=O)c1cccc(c1)C(=O)N1CCN(Cc3cncn3C)C[C@@H]1CO2 [Compound 279]		+ (+ is <300%)
Cc1cccc(C)c1-c1cc2nc(n1)NS(=O)(=O)c1cccc(c1)C(=O)N1CCN(Cc3ccncc3)C[C@@H]1CO2 [Compound 280]		++ (++ is 30-60%)
Cc1cccc(C)c1-c1cc2nc(n1)NS(=O)(=O)c1cccc(c1)C(=O)N1CCN(Cc3ccccn3)C[C@@H]1CO2 [Compound 281]		++ (++ is 30-60%)
Cc1cccc(C)c1-c1cc2nc(n1)NS(=O)(=O)c1cccc(c1)C(=O)N1CCN(Cc3cccnc3)C[C@@H]1CO2 [Compound 282]	3 to 30	++ (++ is 30-60%)
Cc1cccc(C)c1-c1cc2nc(n1)NS(=O)(=O)c1cccc(c1)C(=O)N1CCN(Cc3cocn3)C[C@@H]1CO2 [Compound 283]		++ (++ is 30-60%)
Cc1cccc(C)c1-c1cc2nc(n1)NS(=O)(=O)c1cccc(c1)C(=O)N1CCN(Cc3c[nH]cn3)C[C@@H]1CO2 [Compound 284]		+ (+ is <300%)
Cc1cccc(C)c1-c1cc2nc(n1)NS(=O)(=O)c1cccc(c1)C(=O)N1CCN(Cc3ccn(C)n3)C[C@@H]1CO2 [Compound 285]		++ (++ is 30-60%)

SMILES	EC50 [µM]	Ent. A Max Activity (%)
Cc1cccc(C)c1-c1cc2nc(n1)NS(=O)(=O)c1cccc(c1)C(=O)N1CCN(Cc3ncccn3)C[C@@H]1CO2 [Compound 286]		+ (+ is <300%)
Cc1cccc(C)c1-c1cc2nc(n1)NS(=O)(=O)c1cccc(c1)C(=O)N1CCN(Cc3ccnnc3)C[C@@H]1CO2 [Compound 287]		+ (+ is <300%)
Cc1cccc(C)c1-c1cc2nc(n1)NS(=O)(=O)c1cccc(c1)C(=O)N1CCN(Cc3ccn[nH]3)C[C@@H]1CO2 [Compound 288]		+ (+ is <300%)
Cc1cccc(C)c1-c1cc2nc(n1)NS(=O)(=O)c1cccc(c1)C(=O)N1CCN(C(=O)NCc3ccccc3)C[C@@H]1CO2 [Compound 289]		+ (+ is <300%)
Cc1cccc(C)c1-c1cc2nc(n1)NS(=O)(=O)c1cccc(c1)C(=O)N1CCN(C(=O)NC34CC5CC(CC(C5)C3)C4)C[C@@H]1CO2 [Compound 290]	1 to 3	++ (++ is 30-60%)
Cc1cccc(C)c1-c1cc2nc(n1)NS(=O)(=O)c1cccc(c1)C(=O)N1CCN(C(=O)NC(C)(C)C)C[C@@H]1CO2 [Compound 291]		+++ (+++ is >60%)
Cc1cccc(C)c1-c1cc2nc(n1)NS(=O)(=O)c1cccc(c1)C(=O)N1CCN(C(=O)NC(C)C(C)C)C[C@@H]1CO2 (stereo partly shown) [Compound 292]		++ (++ is 30-60%)
CC(=O)NCCN1CCN2C(=O)c3cccc(c3)S(=O)(=O)Nc3nc(cc(-c4c(C)cccc4C)n3)OC[C@H]2C1 [Compound 294]	3 to 30	++ (++ is 30-60%)
Cc1cccc(C)c1-c1cc2nc(n1)NS(=O)(=O)c1cccc(c1)C(=O)N1CCN(CC3CCOCC3)C[C@@H]1CO2 [Compound 295]	1 to 3	+++ (+++ is >60%)
Cc1cccc(C)c1-c1cc2nc(n1)NS(=O)(=O)c1cccc(c1)C(=O)N1CCN(CCCC(C)(C)C)C[C@@H]1CO2 [Compound 296]	< 1	+++ (+++ is >60%)
Cc1cccc(C)c1-c1cc2nc(n1)NS(=O)(=O)c1cccc(c1)C(=O)N1CCN(CC3CCCCC3)C[C@@H]1CO2 [Compound 297]	< 1	+++ (+++ is >60%)
Cc1cccc(C)c1-c1cc2nc(n1)NS(=O)(=O)c1cccc(c1)C(=O)N1CCN(CCc3ccccc3)C[C@@H]1CO2 [Compound 299]	< 1	++ (++ is 30-60%)
Cc1cccc(C)c1-c1cc2nc(n1)NS(=O)(=O)c1cccc(c1)C(=O)N1CCCC1CO2 (stereo not shown) [Compound 301]		+ (+ is <300%)
Cc1cccc(C)c1-c1cc2nc(n1)NS(=O)(=O)c1cccc(c1)C(=O)N1CCN(C(=O)CCN3CCCC3)C(CO2)C1 (stereo not shown) [Compound 303]		+ (+ is <300%)
Cc1cccc(C)c1-c1cc2nc(n1)NS(=O)(=O)c1cccc(c1)C(=O)N1CCN(C(=O)CC(C)(C)C)C(CO2)C1 (stereo not shown) [Compound 304]		++ (++ is 30-60%)
Cc1cccc(C)c1-c1cc2nc(n1)NS(=O)(=O)c1cccc(c1)C(=O)N1CCN(C(=O)CN(C)C)CC1CO2 (stereo not shown) [Compound 305]		+ (+ is <300%)
Cc1cccc(C)c1-c1cc2nc(n1)NS(=O)(=O)c1cccc(c1)C(=O)N1CCN(C(=O)CCN3CCCC3=O)CC1CO2 (stereo not shown) [Compound 306]		+ (+ is <300%)
Cc1cccc(C)c1-c1cc2nc(n1)NS(=O)(=O)c1cccc(c1)C(=O)N1CCN(C(=O)CC(C)(C)C)CC1CO2 (stereo not shown) [Compound 307]	3 to 30	++ (++ is 30-60%)
Cc1cccc(C)c1-c1cc2nc(n1)NS(=O)(=O)c1cccc(c1)C(=O)N1CCN(C(=O)CCN3CCCC3)CC1CO2 (stereo not shown) [Compound 308]		+ (+ is <300%)
Cc1cccc(C)c1-c1cc2nc(n1)NS(=O)(=O)c1cccc(c1)C(=O)N1CCN(CC3CCCCC3)CC1CO2 (stereo not shown) [Compound 309]	< 1	++ (++ is 30-60%)
Cc1cccc(C)c1-c1cc2nc(n1)NS(=O)(=O)c1cccc(c1)C(=O)N1CCN(CCC(C)(C)C)CC1CO2 (stereo not shown) [Compound 310]	< 1	++ (++ is 30-60%)
Cc1cccc(C)c1-c1cc2nc(n1)NS(=O)(=O)c1cccc(c1)C(=O)N1CCN(CCc3ccccc3)CC1CO2 (stereo not shown) [Compound 311]	< 1	++ (++ is 30-60%)
Cc1cccc(C)c1-c1cc2nc(n1)NS(=O)(=O)c1cccc(c1)C(=O)N1CCN(CC3CCOCC3)CC1CO2 (stereo not shown) [Compound 312]	1 to 3	++ (++ is 30-60%)
Cc1cccc(C)c1-c1cc2nc(n1)NS(=O)(=O)c1cccc(c1)C(=O)N1CCN(CCCC(C)(C)C)CC1CO2 (stereo not shown) [Compound 313]	< 1	+++ (+++ is >60%)

Source: patent US20240018161A1, “MODULATORS OF CYSTIC FIBROSIS TRANSMEMBRANE CONDUCTANCE REGULATOR” (VERTEX PHARMACEUTICALS INCORPORATED, priority 2020, published 2024)
